Assay results as given in the supplement of paper PMC10307832.

Experiments:
Assay in all cases: relative viability (nuclei count vs DMSO), 5 days (fraction); higher = more cells survive
[1] = compound: CN(C)CC1=CC(=CC=C1)N=C(C2=CC=CC=C2)C3=C(NC4=C3C=CC(=C4)C(=O)N(C)C)O + O=C(c1cc(Cc2n[nH]c(=O)c3ccccc23)ccc1F)N1CCN(C(=O)C2CC2)CC1 [Olaparib] (partner 8 µM)
Method in brief: (§1)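 Relative viability equals treated-well nuclei counts divided by vehicle-well nuclei counts. Counts came from 4× images of lung cancer cell lines grown in 1536-well plates for 5 days after pin-tool dosing on the day after seeding. Dosing used one drug alone or a fixed anchor-drug dose plus five library-drug doses (not always all listed) in √10 steps, and values are medians of duplicate plates.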

[2] = compound: CN(C)CC1=CC(=CC=C1)N=C(C2=CC=CC=C2)C3=C(NC4=C3C=CC(=C4)C(=O)N(C)C)O + O=C(CCCCCCC(=O)Nc1ccccc1)NO [Vorinostat] (partner 1 µM)
Method in brief: as §1

[3] = compound: CN(C)CC1=CC(=CC=C1)N=C(C2=CC=CC=C2)C3=C(NC4=C3C=CC(=C4)C(=O)N(C)C)O + Nc1nc2[nH]cc(CCc3ccc(C(=O)N[C@@H](CCC(=O)O)C(=O)O)cc3)c2c(=O)[nH]1 [Pemetrexed] (partner 0.2 µM)
Method in brief: as §1

[4] = compound: CN(C)CC1=CC(=CC=C1)N=C(C2=CC=CC=C2)C3=C(NC4=C3C=CC(=C4)C(=O)N(C)C)O + C[C@]1(O)C[C@@H](c2nc(-c3ccc4ccc(-c5ccccc5)nc4c3)c3c(N)nccn32)C1 [Linsitinib] (partner 1 µM)
Method in brief: as §1

Cell Line	relative viability ([1]; first compound 0.08 µM)	relative viability ([1]; first compound 0.253 µM)	relative viability ([1]; first compound 0.8 µM)	relative viability ([1]; first compound 2.53 µM)	relative viability ([1]; first compound 8 µM)	relative viability ([2]; first compound 0.08 µM)	relative viability ([2]; first compound 0.253 µM)	relative viability ([2]; first compound 0.8 µM)	relative viability ([2]; first compound 2.53 µM)	relative viability ([2]; first compound 8 µM)	relative viability ([3]; first compound 0.08 µM)	relative viability ([3]; first compound 0.253 µM)	relative viability ([3]; first compound 0.8 µM)	relative viability ([3]; first compound 2.53 µM)	relative viability ([3]; first compound 8 µM)	relative viability ([4]; first compound 0.08 µM)	relative viability ([4]; first compound 0.253 µM)	relative viability ([4]; first compound 0.8 µM)	relative viability ([4]; first compound 2.53 µM)	relative viability ([4]; first compound 8 µM)
201T	0.829	0.801	0.839	0.817	0.721	0.988	0.961	0.908	0.946	0.879	0.355	0.382	0.347	0.331	0.315	1.07	1.06	0.937	1.04	0.927
A-427	0.716	0.711	0.754	0.707	0.711	0.887	0.86	0.89	0.872	0.873	1.06	0.993	1	0.955	0.926	1.08	1.1	1.13	1.01	1.06
ABC-1	0.91	0.907	0.952	0.635	0.756	1.34	1.21	1.1	0.895	1.14	–	–	–	–	–	0.773	0.965	0.709	0.728	0.73
BEN	1.09	0.867	1.1	0.877	0.927	0.577	0.609	0.578	0.603	0.575	0.778	0.79	0.707	0.78	0.795	0.98	0.876	0.793	0.846	0.75
CAL-12T	0.704	0.67	0.81	0.654	0.829	0.989	0.715	0.808	0.93	0.82	1.17	1.22	1.14	1.34	1.25	0.779	0.838	0.799	0.771	0.841
COR-L23	0.36	0.308	0.397	0.314	0.327	0.539	0.44	0.468	0.407	0.396	0.205	0.2	0.193	0.196	0.19	1.06	0.889	1.07	0.878	0.759
COR-L 105	0.909	0.732	0.675	0.612	0.75	0.782	0.81	0.753	1.1	0.66	1.21	1.01	0.895	0.892	0.939	0.888	0.838	1.1	1.02	0.805
Calu-6	0.558	0.549	0.571	0.565	0.63	–	–	–	–	–	–	–	–	–	–	0.951	0.877	0.989	0.911	0.885
ChaGo-K-1	0.386	0.458	0.41	0.355	0.415	0.753	0.737	0.795	0.738	0.777	0.251	0.267	0.259	0.258	0.265	–	–	–	–	–
EBC-1	0.785	0.732	0.772	0.744	0.845	–	–	–	–	–	–	–	–	–	–	1.02	0.964	1.05	1	1.08
EKVX	0.83	0.781	–	0.837	0.862	0.778	0.726	0.648	0.858	0.773	0.41	0.362	–	0.396	0.418	1.1	0.925	1.05	1.06	1.07
EMC-BAC-2	0.507	0.526	0.543	0.449	0.507	0.476	0.548	0.463	0.463	0.653	0.437	0.445	0.582	0.435	0.508	0.884	0.797	0.778	0.787	0.717
EPLC-272H	0.696	0.888	0.689	0.664	0.583	0.426	0.519	0.402	0.49	0.315	0.355	0.345	0.284	0.314	0.398	1.21	1.11	0.937	1.15	0.934
H3255	0.577	0.57	0.598	0.574	0.608	0.826	0.987	–	0.777	0.845	0.592	0.52	0.543	0.592	0.592	0.881	0.959	0.924	0.954	1.03
HARA	0.622	1.03	0.762	0.758	0.967	0.6	0.528	0.433	0.715	0.487	0.214	0.234	0.203	0.291	0.228	0.965	1.04	0.865	0.921	0.715
HCC-15	0.681	0.737	0.798	0.561	0.785	0.875	0.821	0.787	0.868	0.89	0.232	0.22	0.208	0.235	0.226	0.869	0.849	0.976	0.974	0.805
HCC-44	0.975	0.995	0.967	0.904	1.04	1.18	1.09	1.2	1.1	1.29	0.691	0.583	0.693	0.598	0.716	0.67	0.683	0.641	0.613	0.664
HCC-78	0.599	0.816	0.776	0.742	0.862	0.455	0.668	0.379	0.464	0.427	0.639	0.873	0.857	0.918	0.859	0.62	0.452	0.475	0.535	0.511
HCC-366	0.339	0.371	0.437	0.347	0.304	0.471	0.369	0.458	0.299	0.473	0.141	0.17	0.265	0.164	0.25	0.737	0.602	0.657	0.473	0.354

Cell Line	relative viability ([1]; first compound 0.08 µM)	relative viability ([1]; first compound 0.253 µM)	relative viability ([1]; first compound 0.8 µM)	relative viability ([1]; first compound 2.53 µM)	relative viability ([1]; first compound 8 µM)	relative viability ([2]; first compound 0.08 µM)	relative viability ([2]; first compound 0.253 µM)	relative viability ([2]; first compound 0.8 µM)	relative viability ([2]; first compound 2.53 µM)	relative viability ([2]; first compound 8 µM)	relative viability ([3]; first compound 0.08 µM)	relative viability ([3]; first compound 0.253 µM)	relative viability ([3]; first compound 0.8 µM)	relative viability ([3]; first compound 2.53 µM)	relative viability ([3]; first compound 8 µM)	relative viability ([4]; first compound 0.08 µM)	relative viability ([4]; first compound 0.253 µM)	relative viability ([4]; first compound 0.8 µM)	relative viability ([4]; first compound 2.53 µM)	relative viability ([4]; first compound 8 µM)
HCC-827	0.615	0.65	0.67	0.623	0.685	0.861	0.803	0.801	0.867	0.815	0.266	0.241	0.25	0.229	0.269	0.984	0.944	1.03	0.925	0.937
HOP-62	0.373	0.327	0.361	0.251	0.504	0.624	0.659	0.643	0.7	0.46	0.264	0.248	0.438	0.344	0.322	1.11	1.08	0.99	1.1	1.16
LC-2-ad	0.663	0.771	0.729	0.723	0.827	0.694	0.699	0.727	0.681	0.622	0.275	0.263	0.275	0.288	0.277	0.844	0.745	0.884	0.808	0.593
LCLC-97TM1	0.485	0.392	0.442	0.391	0.433	0.683	0.728	0.728	0.623	0.551	0.167	0.198	0.187	0.183	0.177	0.212	0.193	0.179	0.148	0.231
LCLC-103H	0.751	0.782	0.773	0.775	0.749	0.815	0.801	0.782	0.793	0.57	0.47	0.442	0.555	0.458	0.456	1.15	1.11	0.941	0.904	0.908
LK-2	0.901	0.653	0.572	0.679	0.489	0.352	0.28	0.272	0.331	0.262	0.286	0.253	0.236	0.269	0.211	0.546	0.517	0.514	0.723	0.222
LOU-NH91	0.931	0.867	0.817	0.906	0.89	0.892	0.97	0.754	0.87	0.872	0.383	0.367	0.465	0.349	0.465	0.975	0.946	0.68	0.925	0.952
LU99A	0.263	0.331	0.254	0.264	0.247	0.517	0.515	0.495	0.416	0.469	0.171	0.173	0.228	0.156	0.185	0.546	0.545	0.496	0.534	0.485
LXF-289	1.11	1.03	1.03	0.993	1.03	0.778	0.745	0.756	0.72	0.727	0.937	0.836	0.904	0.885	0.827	0.935	0.931	0.955	0.857	0.915
NCI-H727	–	0.697	0.672	0.672	0.86	–	0.972	1.35	1.45	1.23	–	–	–	–	–	0.253	0.349	0.197	0.281	0.24
NCI-H1299	0.982	0.999	0.962	0.909	0.901	–	–	–	–	–	–	–	–	–	–	1.05	0.969	1.02	0.946	0.972
NCI-H1563	–	–	–	–	–	–	–	–	–	–	0.829	0.665	0.782	0.741	0.698	1.19	1.28	1.15	1.08	1.14
NCI-H1648	0.867	0.72	–	0.709	1.28	0.518	0.585	–	0.512	0.446	0.717	0.758	–	0.739	0.668	–	–	–	–	–
NCI-H1650	0.821	0.787	0.753	0.937	0.75	0.619	0.698	0.444	0.546	0.652	0.34	0.353	0.344	0.373	0.39	–	–	–	–	–
NCI-H1703	0.375	0.559	0.39	0.199	0.214	–	–	–	–	–	–	–	–	–	–	0.625	0.781	0.701	0.61	0.192
NCI-H1792	0.536	0.452	0.479	0.387	0.422	–	–	–	–	–	0.872	0.826	0.702	0.673	0.838	0.548	0.493	0.5	0.372	0.424
NCI-H2170	0.672	0.552	0.491	0.535	0.554	0.93	0.884	0.693	0.829	0.643	0.245	0.281	0.29	0.264	0.271	–	–	–	–	–
NCI-H2342	0.453	0.454	0.506	0.476	0.561	0.728	0.928	0.773	0.87	0.913	0.763	0.762	0.829	0.836	0.778	–	–	–	–	–
